Results as given in patent publication US20210221822A1, “TRICYCLIC DERIVATIVES INHIBITOR, PREPARATION METHOD, AND APPLICATIONS THEREOF” (Jiangsu Hansoh Pharmaceutical Group Co., Ltd., priority 2018, published 2021).

Assays:
[1] = test system: PI3Kα mutant cancer cells HGC-27 (E542K); experiment: Cell Titer-Glo proliferation inhibition, HGC-27; format: cell-based; details: Homo sapiens, 48 to 96 hours
Protocol: Experimental method: The proliferation inhibitory effect of the compounds of the examples on PI3Kα mutant cancer cell lines HCC1954, HGC-27 and MKN1 was determined by Cell Titer-Glo method. The cell lines were cultured in RPMI 1640 medium (Gibco #22400089) containing 10% FBS (Gibco #10091148) and 1% P/S (Hyclone #SV30010) at 37° C. and 5% CO2. Before the experiment, the cells were collected and counted, and then the cell density was adjusted. The cells were inoculated in a white 96-well plate (Corning #3610) at a density of 1000 to 10000 cells/well, and incubated in an incubator at 37° C., 5% CO2 overnight. The compound solution of different concentrations was added, and corresponding vehicle control was set at the same time. The cell plate was further incubated in an incubator at 37° C., 5% CO2 for 48 to 96 hours. The cell plate and its content were equilibrated to room temperature. 20 to 100 μL of Cell Titer-Glo solution (Promega #G7573) was added to each well, and the plate was shaked well and incubated at room temperature in the dark for 5 to 30 minutes. The chemiluminescence value was measured by the BioTek SynergyH1 microplate reader.
The percentage inhibition data of the well treated by the compounds of the examples was calculated through the vehicle control well on the plate {% inhibition rate=100−(test compound value/vehicle control value)×100}. The IC50 value was calculated by fitting the data of different concentrations and corresponding percentage inhibition rates to a four-parameter nonlinear logic formula with GraphPad prism.

HCC1954 cells = experiment: In vivo efficacy test, HCC1954 tumor-bearing nude mice; set-up: species or system BALB/c nude mice; details: HCC1954 xenograft, oral 10 mg/kg once/day, 21 days (Example 51: 19 days)
Protocol: a. HCC1954 cells were taken from the cell bank, and resuscitated in RPMI-1640 medium (RPMI-1640+10% FBS+1% SP). The resuscitated cells were placed in a cell culture flask (the cell type, date, operator's name and the like were marked on the wall of the flask), and cultured in a CO2 incubator (the temperature of the incubator was 37° C., and the CO2 concentration was 5%).
c. The cultured cells were collected and counted with the automatic cell counter. The cells were resuspended with PBS and matrigel according to the counting results to prepare a cell suspension (density: 5×10^7/mL), which was placed in an ice box for later use.
d. The test nude mice were subjected to inoculation successively (0.1 mL of cell suspension was inoculated to each mouse).
a. According to the tumor growth, the tumor was measured on 14 to 18 days after the inoculation, and the tumor size was calculated.
Tumor volume calculation: tumor volume (mm^3)=length (mm)×width (mm)×width (mm)/2
c. According to the grouping results, the test compounds were administered (administration mode: oral administration; administration dose: 10 mg/kg;
administration volume: 10 mL/kg; administration frequency: once/day; administration cycle: 21 days; vehicle: 0.5% CMC/1% Tween 80).
d. Tumor volume and body weight were measured twice a week after the administration of test compounds began.
f. […]

PI3Kγ = molecular target: T1, PI3Kγ (Homo sapiens, UniProt P48736); experiment: ADP-Glo lipid kinase assay, PI3Kγ kinase activity; format: biochemical; details: 0.4 nM enzyme, 120 min, 50 μM ATP
T1 construct: purchased Thermofisher PV4786
In short: (§1)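 ADP-Glo luminescence measured ADP formed by PI3Kα, β, γ or δ (0.1-2 nM working solution) with PIP2:3PS (50 μM added solution) and ATP in HEPES/MgCl2/NaCl/BSA buffer, 90 to 120 min at room temperature. % inhibition was set against DMSO and no-kinase controls, and IC50 came from a four-parameter fit.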

PI3Kα = molecular target: T2, PI3Kα (Homo sapiens, UniProt P42336); experiment: ADP-Glo lipid kinase assay, PI3Kα kinase activity; format: biochemical
T2 construct: purchased Promega V1721
In short: as §1

T2 sequence (P42336 whole entry): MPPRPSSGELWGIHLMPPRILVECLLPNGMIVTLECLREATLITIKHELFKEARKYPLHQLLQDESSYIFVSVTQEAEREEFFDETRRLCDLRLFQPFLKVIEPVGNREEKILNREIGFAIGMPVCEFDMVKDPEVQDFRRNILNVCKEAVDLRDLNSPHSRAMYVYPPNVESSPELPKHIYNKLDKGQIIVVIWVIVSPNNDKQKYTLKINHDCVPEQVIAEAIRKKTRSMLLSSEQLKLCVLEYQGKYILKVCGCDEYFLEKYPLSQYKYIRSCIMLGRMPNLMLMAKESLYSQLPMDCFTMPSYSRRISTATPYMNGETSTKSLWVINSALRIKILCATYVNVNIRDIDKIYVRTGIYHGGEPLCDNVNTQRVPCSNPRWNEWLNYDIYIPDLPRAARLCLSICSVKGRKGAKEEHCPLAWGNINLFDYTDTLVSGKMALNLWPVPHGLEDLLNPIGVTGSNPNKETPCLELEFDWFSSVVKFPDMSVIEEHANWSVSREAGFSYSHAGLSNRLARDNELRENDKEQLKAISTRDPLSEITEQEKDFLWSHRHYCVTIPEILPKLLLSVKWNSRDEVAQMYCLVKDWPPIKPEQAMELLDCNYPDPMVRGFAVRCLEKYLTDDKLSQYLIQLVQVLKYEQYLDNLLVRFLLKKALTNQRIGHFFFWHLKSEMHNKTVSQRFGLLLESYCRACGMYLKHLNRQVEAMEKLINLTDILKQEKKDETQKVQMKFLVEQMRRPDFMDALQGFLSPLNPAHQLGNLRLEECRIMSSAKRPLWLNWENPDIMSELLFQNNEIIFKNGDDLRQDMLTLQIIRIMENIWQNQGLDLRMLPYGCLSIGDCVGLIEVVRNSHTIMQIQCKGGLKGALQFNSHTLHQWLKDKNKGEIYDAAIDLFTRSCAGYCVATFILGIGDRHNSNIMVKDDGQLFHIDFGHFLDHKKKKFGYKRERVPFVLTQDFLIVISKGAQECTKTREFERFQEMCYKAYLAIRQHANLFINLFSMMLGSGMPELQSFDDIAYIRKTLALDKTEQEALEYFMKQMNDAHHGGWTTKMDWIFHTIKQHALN
T2 sequence (P27986 whole entry partner): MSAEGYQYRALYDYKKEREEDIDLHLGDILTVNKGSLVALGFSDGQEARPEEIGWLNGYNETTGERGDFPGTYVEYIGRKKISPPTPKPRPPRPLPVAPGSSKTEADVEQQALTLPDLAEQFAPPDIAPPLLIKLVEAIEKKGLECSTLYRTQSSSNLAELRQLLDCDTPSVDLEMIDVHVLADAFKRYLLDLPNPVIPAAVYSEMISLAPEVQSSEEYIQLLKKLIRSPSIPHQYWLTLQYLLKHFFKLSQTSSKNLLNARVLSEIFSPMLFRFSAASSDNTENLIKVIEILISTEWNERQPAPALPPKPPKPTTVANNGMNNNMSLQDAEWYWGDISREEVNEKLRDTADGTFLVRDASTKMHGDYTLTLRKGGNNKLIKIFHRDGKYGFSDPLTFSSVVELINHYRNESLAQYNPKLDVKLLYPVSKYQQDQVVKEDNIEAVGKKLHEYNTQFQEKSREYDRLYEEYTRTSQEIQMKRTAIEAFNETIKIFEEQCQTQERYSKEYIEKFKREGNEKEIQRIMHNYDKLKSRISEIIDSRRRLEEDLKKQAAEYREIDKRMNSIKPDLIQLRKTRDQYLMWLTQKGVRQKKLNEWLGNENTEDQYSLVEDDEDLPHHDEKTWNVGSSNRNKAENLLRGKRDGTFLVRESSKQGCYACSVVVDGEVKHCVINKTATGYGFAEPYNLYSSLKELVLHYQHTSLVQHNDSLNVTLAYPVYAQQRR
T1 sequence (P48736 whole entry): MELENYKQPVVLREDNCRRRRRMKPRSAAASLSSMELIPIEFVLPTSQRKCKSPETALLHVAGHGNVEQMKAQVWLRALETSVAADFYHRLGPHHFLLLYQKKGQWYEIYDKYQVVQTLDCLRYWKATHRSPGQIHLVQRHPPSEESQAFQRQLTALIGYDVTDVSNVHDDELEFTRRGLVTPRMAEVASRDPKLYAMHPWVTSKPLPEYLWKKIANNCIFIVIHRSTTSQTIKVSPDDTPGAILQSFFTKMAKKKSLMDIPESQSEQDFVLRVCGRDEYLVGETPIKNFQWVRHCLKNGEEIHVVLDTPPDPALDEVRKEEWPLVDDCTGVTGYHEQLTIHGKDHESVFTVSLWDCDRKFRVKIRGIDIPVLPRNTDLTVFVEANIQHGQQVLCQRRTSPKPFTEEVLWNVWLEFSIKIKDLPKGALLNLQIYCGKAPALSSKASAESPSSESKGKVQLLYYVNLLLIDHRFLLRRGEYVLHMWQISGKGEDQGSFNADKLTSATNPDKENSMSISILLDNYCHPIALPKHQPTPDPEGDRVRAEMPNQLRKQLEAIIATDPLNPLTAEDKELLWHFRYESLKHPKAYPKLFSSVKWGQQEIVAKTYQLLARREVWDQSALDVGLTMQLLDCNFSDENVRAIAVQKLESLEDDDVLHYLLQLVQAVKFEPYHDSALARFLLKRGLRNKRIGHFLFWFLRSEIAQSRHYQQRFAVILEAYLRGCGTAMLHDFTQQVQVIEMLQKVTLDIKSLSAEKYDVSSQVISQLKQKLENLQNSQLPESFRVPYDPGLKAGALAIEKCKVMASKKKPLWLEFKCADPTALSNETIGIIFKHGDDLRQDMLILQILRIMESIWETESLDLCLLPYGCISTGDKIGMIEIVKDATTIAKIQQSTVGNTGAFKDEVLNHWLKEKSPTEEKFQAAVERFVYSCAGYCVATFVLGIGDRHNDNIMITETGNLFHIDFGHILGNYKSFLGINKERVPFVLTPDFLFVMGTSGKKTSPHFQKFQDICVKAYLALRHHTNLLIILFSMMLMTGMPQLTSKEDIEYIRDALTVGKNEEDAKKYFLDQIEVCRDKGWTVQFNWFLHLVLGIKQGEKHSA

Structure (SMILES): C[C@H](Nc1ccc2c(c1)OCCn1cc(N3C(=O)COC[C@H]3C(F)F)nc1-2)C(N)=O [Example 68, (S)-2-((2-((S)-3-(difluoromethyl)-5-oxomorpholino)-5,6-dihydrobenzo[f]imidazo[1,2-d][1,4]oxazepin-9-yl)amino)propanamide]
- IC50 [1]: 111 nM
- Tumor growth inhibition rate (HCC1954 cells): 78%
- IC50 (PI3Kγ): 79 nM
- IC50 (PI3Kα; ADP-Glo, 0.1 nM enzyme, 120 min, 50 μM ATP): 0.38 nM
- Selectivity of PI3Kα vs PI3Kβ (PI3Kα; ratio of IC50 PI3Kβ to IC50 PI3Kα): 521
- Selectivity of PI3Kα vs PI3Kγ (PI3Kα; ratio of IC50 PI3Kγ to IC50 PI3Kα): 208
- Selectivity of PI3Kα vs PI3Kδ (PI3Kα; ratio of IC50 PI3Kδ to IC50 PI3Kα): 63
